Assay results from PubChem BioAssay AID2060500 (Molecular Pharmacology Branch, DTP, NCI, 2025).

Test system: 596521-263-R-J1-PDC complex spheroids, viability % of control
Assay: Anticancer human tumor 596521-263-R-J1-PDC patient-derived soft tissue sarcoma cell line growth inhibition [GQUAD]
Conditions: for IC50: curve of first compound; for viability, T/C: stronger effect = lower value
In short: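 Multi-cell-type spheroids of tumor cells with HUVEC and mesenchymal stem cells, treated with drug combinations. Concentrations descend in half-log steps from near clinical Cmax, or from 10 microM where Cmax is unknown; viability read-out.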

[1] = second compound 0.0316 µM, first compound 0.0316 µM
[2] = second compound 0.0316 µM, first compound 0.1 µM
[3] = second compound 0.0316 µM, first compound 0.316 µM
[4] = second compound 0.0316 µM, first compound 1 µM
[5] = second compound 0.0316 µM, first compound 3.16 µM
[6] = second compound 0.0316 µM, first compound 10 µM
[7] = second compound 0.1 µM, first compound 0.0316 µM
[8] = second compound 0.1 µM, first compound 0.1 µM
[9] = second compound 0.1 µM, first compound 0.316 µM
[10] = second compound 0.1 µM, first compound 1 µM
[11] = second compound 0.1 µM, first compound 3.16 µM
[12] = second compound 0.1 µM, first compound 10 µM
[13] = second compound 0.316 µM, first compound 0.0316 µM
[14] = second compound 0.316 µM, first compound 0.1 µM
[15] = second compound 0.316 µM, first compound 0.316 µM
[16] = second compound 0.316 µM, first compound 1 µM
[17] = second compound 0.316 µM, first compound 3.16 µM
[18] = second compound 0.316 µM, first compound 10 µM
[19] = second compound 1 µM, first compound 0.0316 µM
[20] = second compound 1 µM, first compound 0.1 µM
[21] = second compound 1 µM, first compound 0.316 µM
[22] = second compound 1 µM, first compound 1 µM
[23] = second compound 1 µM, first compound 3.16 µM
[24] = second compound 1 µM, first compound 10 µM
[25] = second compound 3.16 µM, first compound 0.0316 µM
[26] = second compound 3.16 µM, first compound 0.1 µM
[27] = second compound 3.16 µM, first compound 0.316 µM
[28] = second compound 3.16 µM, first compound 1 µM
[29] = second compound 3.16 µM, first compound 3.16 µM
[30] = second compound 3.16 µM, first compound 10 µM
[31] = second compound 10 µM, first compound 0.0316 µM
[32] = second compound 10 µM, first compound 0.1 µM
[33] = second compound 10 µM, first compound 0.316 µM
[34] = second compound 10 µM, first compound 1 µM
[35] = second compound 10 µM, first compound 3.16 µM
[36] = second compound 10 µM, first compound 10 µM
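Note: spheroids exposed to drugs for 7 days before viability reading.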
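Throughout, for viability, T/C: 100% = DMSO vehicle control viability.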

Compound: C#Cc1c(F)ccc2cc(O)cc(-c3ncc4c(N5CC6CCC(C5)N6)nc(OCC56CCCN5CC(F)C6)nc4c3F)c12 (stereo unspecified) + Cc1[nH]c2ccc(F)cc2c1-c1nc2c3cccnc3c3ncccc3c2[nH]1
- IC50 (second compound 0.0316 µM): 1280 nM
- IC50 (second compound 0.1 µM): 1390 nM
- IC50 (second compound 0.316 µM): 1380 nM
- IC50 (second compound 1 µM): 1350 nM
- IC50 (second compound 3.16 µM): 1710 nM
- IC50 (second compound 10 µM): 1490 nM
- viability, T/C [1]: 111%
- viability, T/C [2]: 94.7%
- viability, T/C [3]: 89.1%
- viability, T/C [4]: 60.9%
- viability, T/C [5]: 17.9%
- viability, T/C [6]: 18.9%
- viability, T/C [7]: 104%
- viability, T/C [8]: 93.3%
- viability, T/C [9]: 97.4%
- viability, T/C [10]: 62.1%
- viability, T/C [11]: 17.5%
- viability, T/C [12]: 22.7%
- viability, T/C [13]: 113%
- viability, T/C [14]: 95.6%
- viability, T/C [15]: 97.3%
- viability, T/C [16]: 62.5%
- viability, T/C [17]: 16.1%
- viability, T/C [18]: 21.2%
- viability, T/C [19]: 88%
- viability, T/C [20]: 87.7%
- viability, T/C [21]: 92.9%
- viability, T/C [22]: 59.9%
- viability, T/C [23]: 21.1%
- viability, T/C [24]: 22.5%
- viability, T/C [25]: 83.8%
- viability, T/C [26]: 95.1%
- viability, T/C [27]: 80.7%
- viability, T/C [28]: 65.9%
- viability, T/C [29]: 31.6%
- viability, T/C [30]: 29%
- viability, T/C [31]: 78.3%
- viability, T/C [32]: 78%
- viability, T/C [33]: 81%
- viability, T/C [34]: 60.8%
- viability, T/C [35]: 29.1%
- viability, T/C [36]: 30%

Compound: CC(=O)O[C@H]1C(=O)[C@@]2(C)[C@H]([C@H](OC(=O)c3ccccc3)[C@]3(O)C[C@H](OC(=O)[C@H](O)[C@@H](NC(=O)c4ccccc4)c4ccccc4)C(C)=C1C3(C)C)[C@]1(OC(C)=O)CO[C@@H]1C[C@@H]2O + Cc1[nH]c2ccc(F)cc2c1-c1nc2c3cccnc3c3ncccc3c2[nH]1
- IC50 (second compound 0.0316 µM): 122 nM
- IC50 (second compound 0.1 µM): 144 nM
- IC50 (second compound 0.316 µM): 173 nM
- IC50 (second compound 1 µM): 212 nM
- IC50 (second compound 3.16 µM): 204 nM
- IC50 (second compound 10 µM): 226 nM
- viability, T/C [1]: 90.8%
- viability, T/C [2]: 55.8%
- viability, T/C [3]: 20.6%
- viability, T/C [4]: 0.81%
- viability, T/C [5]: 0.38%
- viability, T/C [6]: 0.28%
- viability, T/C [7]: 96.1%
- viability, T/C [8]: 60.2%
- viability, T/C [9]: 28.2%
- viability, T/C [10]: 0.74%
- viability, T/C [11]: 0.23%
- viability, T/C [12]: 0.22%
- viability, T/C [13]: 107%
- viability, T/C [14]: 69.1%
- viability, T/C [15]: 30.8%
- viability, T/C [16]: 1.26%
- viability, T/C [17]: 0.2%
- viability, T/C [18]: 1.66%
- viability, T/C [19]: 89.1%
- viability, T/C [20]: 74.9%
- viability, T/C [21]: 37.5%
- viability, T/C [22]: 1.83%
- viability, T/C [23]: 0.31%
- viability, T/C [24]: 0.28%
- viability, T/C [25]: 85.4%
- viability, T/C [26]: 69%
- viability, T/C [27]: 39.2%
- viability, T/C [28]: 1.48%
- viability, T/C [29]: 0.34%
- viability, T/C [30]: 1.18%
- viability, T/C [31]: 71.3%
- viability, T/C [32]: 65.2%
- viability, T/C [33]: 42.9%
- viability, T/C [34]: 1.48%
- viability, T/C [35]: 0.49%
- viability, T/C [36]: 0.31%

Compound: CCCS(=O)(=O)Nc1ccc(F)c(C(=O)c2c[nH]c3ncc(-c4ccc(Cl)cc4)cc23)c1F + Cc1[nH]c2ccc(F)cc2c1-c1nc2c3cccnc3c3ncccc3c2[nH]1
- IC50 (second compound 0.0316 µM): 504 nM
- IC50 (second compound 0.1 µM): 358 nM
- IC50 (second compound 0.316 µM): 836 nM
- IC50 (second compound 1 µM): 498 nM
- IC50 (second compound 3.16 µM): 376 nM
- IC50 (second compound 10 µM): 419 nM
- viability, T/C [1]: 107%
- viability, T/C [2]: 73.5%
- viability, T/C [3]: 56.2%
- viability, T/C [4]: 41.7%
- viability, T/C [5]: 40.5%
- viability, T/C [6]: 40.2%
- viability, T/C [7]: 89.3%
- viability, T/C [8]: 74.2%
- viability, T/C [9]: 51.8%
- viability, T/C [10]: 36.8%
- viability, T/C [11]: 42.8%
- viability, T/C [12]: 31.1%
- viability, T/C [13]: 112%
- viability, T/C [14]: 81.4%
- viability, T/C [15]: 61.1%
- viability, T/C [16]: 44.4%
- viability, T/C [17]: 46.3%
- viability, T/C [18]: 33.1%
- viability, T/C [19]: 84.4%
- viability, T/C [20]: 81.6%
- viability, T/C [21]: 57.2%
- viability, T/C [22]: 38.4%
- viability, T/C [23]: 44.4%
- viability, T/C [24]: 29.7%
- viability, T/C [25]: 92.6%
- viability, T/C [26]: 70.4%
- viability, T/C [27]: 53.2%
- viability, T/C [28]: 37.6%
- viability, T/C [29]: 37.9%
- viability, T/C [30]: 32%
- viability, T/C [31]: 74.6%
- viability, T/C [32]: 58.5%
- viability, T/C [33]: 58%
- viability, T/C [34]: 38.1%
- viability, T/C [35]: 39.3%
- viability, T/C [36]: 30.4%
